Data reported in patent publication US8193241B2, “Discodermolide analogues and methods of their use” (The Trustees Of The University Of Pennsylvania, priority 2007, dated 2012).

How the values were obtained:
Assay type in all cases: cell-based
[1] = tested on: ovarian (SKOV3) cell line; assay: Antiproliferative activity, SKOV3; conditions: Homo sapiens, SK-OV-3
[2] = tested on: breast (MCF-7) cell line; assay: Antiproliferative activity, MCF-7; conditions: Homo sapiens, MCF7; MCF-7 breast cell line
[3] = tested on: multi-drug resistant (MDR) cell line (NCI/ADR), over-expresses P-glycoprotein; assay: Antiproliferative activity, NCI/ADR; conditions: Homo sapiens, NCI/ADR-RES
[4] = tested on: wide range of cell lines, including breast (MCF-7), ovarian (SKOV3) and MDR (NCI/ADR); assay: Antiproliferative assays over a series of cell lines (statements in words); conditions: wide range of cell lines incl. MCF-7, SKOV3, NCI/ADR

| SMILES | IC50 [1] | IC50 [2] | IC50 [3] | Antiproliferative activity in words [4] |
| --- | --- | --- | --- | --- |
| C=C/C=C\C(C)[C@H](OC(N)=O)[C@@H](C)[C@H](O)[C@@H](C)C/C(C)=C\[C@H](C)[C@@H](O)C(C)/C=C\c1ccc2ccc(=O)oc2c1 (single isomer, unassigned; (+)) [(+)-6] | 44 nM | 12 nM | 190 nM | nanomolar activity similar to (+)-discodermolide 1 |
| CC/C=C\C(C)[C@H](OC(N)=O)[C@@H](C)[C@H](O)[C@@H](C)C/C(C)=C\[C@H](C)[C@@H](O)C(C)/C=C\c1ccc2ccc(=O)oc2c1 (single isomer, unassigned; (+)) [(+)-8] | 35 nM | 15 nM | 230 nM | nanomolar activity equivalent to (+)-1 and (+)-6 |
| CC/C=C\C(C)[C@H](OC(N)=O)[C@@H](C)[C@H](O)[C@@H](C)C/C(C)=C\[C@H](C)[C@@H](O)C(C)/C=C\c1ccc2oc(=O)ccc2c1 (single isomer, unassigned; (+)) [(+)-9] | 1800 nM | 1600 nM | 3300 nM | micromolar activity |
| CC/C=C\C(C)[C@H](OC(N)=O)[C@@H](C)[C@H](O)[C@@H](C)C/C(C)=C\[C@H](C)[C@@H](O)C(C)/C=C\c1ccc2c(c1)N(C)C(=O)CO2 (single isomer, unassigned; (+)) [(+)-11] | 2400 nM | 1600 nM | 3200 nM | micromolar activity |
| CC/C=C\C(C)[C@H](OC(N)=O)[C@@H](C)[C@H](O)[C@@H](C)C/C(C)=C\[C@H](C)[C@@H](O)C(C)/C=C\c1ccc2c(c1)N(COC)C(=O)CO2 (single isomer, unassigned; (+)) [(+)-12] | 2900 nM | 3000 nM | 4000 nM | micromolar activity |
| C=C/C=C\[C@H](C)[C@H](OC(N)=O)[C@@H](C)[C@H](O)[C@@H](C)C/C(C)=C\[C@H](C)[C@@H](O)[C@@H](C)/C=C\[C@@H](O)CC1OC(=O)[C@H](C)[C@@H](O)[C@H]1C (single isomer, unassigned; (+)) [(+)-Discodermolide 1, (+)-discodermolide, reference compound] | 25 nM | 26 nM | 260 nM |  |
| CC/C=C\C(C)[C@H](OC(N)=O)[C@@H](C)[C@H](O)[C@@H](C)C/C(C)=C\[C@H](C)[C@@H](O)C(C)/C=C\c1ccc2c(c1)NC(=O)CO2 (single isomer, unassigned; (-)) [(−)-10] | 790 nM | 430 nM | 840 nM | micromolar activity |
